# Tests used:
# Staph. aureus Russell [1] = assay: Antibacterial Activity (Example 4), M.I.C.; format: cell-based; details: compound alone
# Kleb. aerogenes E70 [2] = assay: Antibacterial Activity (Example 4), M.I.C.; format: cell-based, Klebsiella aerogenes; details: compound alone
# P. mirabilis C889 [3] = assay: Antibacterial Activity (Example 4), M.I.C.; format: cell-based, Proteus mirabilis; details: compound alone
# E. coli JT39 [4] = assay: Antibacterial Activity (Example 4), M.I.C.; format: cell-based; details: compound alone
# mice = assay: Toxicity, intraperitoneal administration to mice; format: in vivo; details: dosages up to 750 mg/kg
# Experimental: The compound of Example 1 (Isomer II) was administered intraperitoneally to mice.
# E. coli JT39 [5] = assay: Antibacterial Synergy (Example 13), MIC; format: cell-based
# Experimental: (§1) The MIC's of ampicillin, the product of Example 10 (synergist) and ampicillin in the presence of the product of Example 10 were determined for a range of bacteria.
# Klebsiella aerogenes E70 = assay: Antibacterial Synergy (Example 13), MIC; format: cell-based
# Experimental: as §1
# Proteus mirabilis C889 = assay: Antibacterial Synergy (Example 13), MIC; format: cell-based
# Experimental: as §1
# Staph. aureus Russell [6] = assay: Antibacterial Synergy (Example 13), MIC; format: cell-based
# Experimental: as §1
# E. coli E96 (RTEM) = format: in vivo, mice infected with E. coli; details: amoxycillin alone; printed × 2 (dosed at 1 and 5 hours after infection); mice
# Experimental: Groups of mice were infected intraperitoneally with E. coli E96 (RTEM), and were then dosed at 1 and 5 hours after infection with amoxycillin or amoxycillin and the compound of Example 3.
# Staph. aureus Russell [7] = assay: Antibacterial Synergy (Example 4), MIC for ampicillin; format: cell-based; details: ampicillin alone, no inhibitor
# Kleb. aerogenes E70 [8] = assay: as above; format: cell-based, Klebsiella aerogenes; details: ampicillin alone, no inhibitor
# P. mirabilis C889 [9] = assay: as above; format: cell-based, Proteus mirabilis; details: ampicillin alone, no inhibitor
# E. coli JT39 [10] = assay: as above; format: cell-based; details: ampicillin alone, no inhibitor
# [11] = ampicillin + synergist at 20 μg/ml
structure (smiles),measurement,setting,value
"O=C(OCc1ccccc1)C1CC=C2OC3CC(=O)N3C2C1 (single isomer, unassigned) [2 (Isomer II)]",M.I.C.,Staph. aureus Russell [1],62.5 µg/mL
same,M.I.C.,Kleb. aerogenes E70 [2],> 500 µg/mL
same,M.I.C.,P. mirabilis C889 [3],> 500 µg/mL
same,M.I.C.,E. coli JT39 [4],> 500 µg/mL
"COC(=O)C1CC=C2OC3CC(=O)N3C2C1 (single isomer, unassigned) [Example 1 (Isomer II)]",M.I.C.,Staph. aureus Russell [1],125 µg/mL
same,M.I.C.,Kleb. aerogenes E70 [2],> 500 µg/mL
same,M.I.C.,P. mirabilis C889 [3],> 500 µg/mL
same,deaths after 10 days,mice,no deaths were observed at dosages up to 750 mg/kg
"O=C(O)C1CC=C2O[C@@H]3CC(=O)N3C2C1 (single isomer, unassigned) [Example 10]",MIC,"E. coli JT39 [5]; Escherichia coli, synergist alone",16 µg/mL
same,MIC Ampicillin,E. coli JT39 [5]; [11],inhibition
same,MIC Ampicillin,Klebsiella aerogenes E70; [11],inhibition
same,MIC,Klebsiella aerogenes E70; synergist alone,31.2 µg/mL
same,MIC Ampicillin,Proteus mirabilis C889; [11],inhibition
same,MIC,Proteus mirabilis C889; synergist alone,31.2 µg/mL
same,MIC,"Staph. aureus Russell [6]; Staphylococcus aureus, synergist alone",125 µg/mL
"CC1(C)S[C@@H]2[C@H](NC(=O)[C@H](N)c3ccc(O)cc3)C(=O)N2[C@H]1C(=O)O [Amoxycillin, amoxycillin]",CD50,E. coli E96 (RTEM),1000 mg/kg
"O=C(O)[C@H]1CC=C2O[C@@H]3CC(=O)N3[C@H]2C1 [Example 3, Sodium (1S, 5R)-Δ^7,8-3-oxo-6-oxa-2-azatricyclo-[5.4.0.0^2,5]undecene-10-carboxylate]",M.I.C.,Staph. aureus Russell [1],125 µg/mL
same,M.I.C.,Kleb. aerogenes E70 [2],> 500 µg/mL
same,M.I.C.,P. mirabilis C889 [3],> 500 µg/mL
same,M.I.C.,E. coli JT39 [4],250 µg/mL
"CC1(C)S[C@@H]2[C@H](NC(=O)[C@H](N)c3ccccc3)C(=O)N2[C@H]1C(=O)O [ampicillin, reference compound]",MIC for ampicillin,Staph. aureus Russell [7],> 500 µg/mL
same,MIC for ampicillin,Kleb. aerogenes E70 [8],2000 µg/mL
same,MIC for ampicillin,P. mirabilis C889 [9],2000 µg/mL
same,MIC for ampicillin,E. coli JT39 [10],500 µg/mL
same,MIC Ampicillin,E. coli JT39 [5]; synergist concentration 0,> 2000 µg/mL
same,MIC Ampicillin,Klebsiella aerogenes E70; synergist concentration 0,500 µg/mL
same,MIC Ampicillin,Proteus mirabilis C889; synergist concentration 0,> 2000 µg/mL
same,MIC Ampicillin,Staph. aureus Russell [6]; synergist concentration 0,500 µg/mL

# Reference: patent US4415584A, “3-Oxo-6-oxa-2-azatricyclo 5.4.2. unadecene-4-carboxylate” (Beecham Group Limited, priority 1978, dated 1983)
